The conditions of series [1]: pH 6.
Experimental: (§1) Absorbance was measured at pH 6, 8, and 10: acid (pH 6) gave two bands of similar absorbance; pH 10 gave a single λmax (base). The emission spectra were determined by excitation at the absorbance λmax (base). The wavelength where emission spectra crossed is reported as λiso. The emission λmax was measured at pH 10. pKa was determined from fluorescence emission spectra.
(§2) Fluorescence versus pH of various SNAFL free acids were compared using an Ocean Optics USB2000 fiber optic spectrometer and a tungsten halogen light source (part number HL-2000 FHSA). The light source was equipped with a linear variable filter that allowed the wavelength and shape of the excitation beam to be adjusted. […] A cuvette holder (part number CUV-FL-DA) was directly attached to the light source and a fiber optic cable directed emitted light to the spectrometer. Excitation conditions are reported for each fluorescence spectrum (3000 msec irradiation at the indicated wavelength). Spectral data were collected on a personal computer using the Ocean Optics software and overlays of different spectra were captured. […]
(§3) The pH at which two molecular species (tautomers) are equally represented is defined as the pKa. […] The intensity of fluorescence at the emission maxima is divided by 2, and pH of the intersecting pH curve is calculated by interpolation between the nearest 2 curves.
A short description of series [2]: pKa determination from fluorescence emission spectra of SNAFL analogs. To be noted: phosphate buffer, pH 6.
Experimental: as §1, §2, §3
For series [3] the following is noted: published / literature value; cited from earlier work.

Where two headings read alike, the source gives them in different places.

“5′(and 6′)-carboxy-3,10-dihydroxy-spiro[7H-benzo[c]xanthene-7,1′(3′H)-isobenzofuran]-3′-one [SNAFL-1]” registered a pKa in series [1] of 7.6. On to `O=C(O)CCc1cc2c(-c3ccccc3C(=O)O)c3ccc4cc(O)c(Cl)cc4c3oc-2cc1=O` [EBIO-3, 2-(2-chloro-3-hydroxy-9-carboxyethyl-10-oxo-10H-benzo[c]xanthen-7-yl)benzoic acid], for which the pKa in series [2] came to 6.6. Consider `O=S1(=O)OC2(c3ccccc31)c1ccc3cc(O)ccc3c1Oc1c2ccc2cc(O)ccc12` [VITABLUE], for which, in series [3], the pKa is 7.56.

One may read the pKa as the negative logarithm of the acid dissociation constant.
